Numbering of substitutions follows the chain as printed. Where two headings read alike, the source gives them in different places.
Legend:
YPDC = target: T1, YPDC (Saccharomyces cerevisiae, UniProt P06169); assay: CD titration with propionylphosphinate; format: binding; conditions: for Kd: pH 6.0, 25 °C
T1 sequence (P06169 1-563): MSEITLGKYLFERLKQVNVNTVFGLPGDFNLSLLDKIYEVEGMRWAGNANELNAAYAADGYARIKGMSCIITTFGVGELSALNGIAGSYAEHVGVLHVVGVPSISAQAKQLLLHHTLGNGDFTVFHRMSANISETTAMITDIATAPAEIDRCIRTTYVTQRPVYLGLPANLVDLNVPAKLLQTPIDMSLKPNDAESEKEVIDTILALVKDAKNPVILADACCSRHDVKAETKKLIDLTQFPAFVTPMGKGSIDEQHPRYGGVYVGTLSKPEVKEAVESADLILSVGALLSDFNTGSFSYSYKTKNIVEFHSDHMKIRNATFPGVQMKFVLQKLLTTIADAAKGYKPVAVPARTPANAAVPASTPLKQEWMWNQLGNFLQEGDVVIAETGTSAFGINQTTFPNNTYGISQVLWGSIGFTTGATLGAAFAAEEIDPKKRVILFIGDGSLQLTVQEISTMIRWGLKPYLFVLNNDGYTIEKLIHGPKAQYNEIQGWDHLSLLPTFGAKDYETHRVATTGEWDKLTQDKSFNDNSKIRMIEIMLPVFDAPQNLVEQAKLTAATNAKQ

E51D YPDC = target: T2, E51D YPDC (Saccharomyces cerevisiae, UniProt P06169, E51D); assay: CD titration with propionylphosphinate; format: binding
T2 sequence (P06169 1-563 E51D): T1 sequence (P06169 1-563) with E51D

D28A YPDC = target: T3, D28A YPDC (Saccharomyces cerevisiae, UniProt P06169, D28A); assay: CD titration with propionylphosphinate; format: binding; conditions: pH 6.0, 25 °C
T3 sequence (P06169 1-563 D28A): T1 sequence (P06169 1-563) with D28A

C221E/C222A YPDC = target: T4, C221E/C222A YPDC (Saccharomyces cerevisiae, UniProt P06169, C221E/C222A); assay: CD titration with propionylphosphinate; format: binding; conditions: IP form of PPThDP
T4 sequence (P06169 1-563 C221E/C222A): T1 sequence (P06169 1-563) with C221E, C222A

E477Q YPDC = target: T5, E477Q YPDC (Saccharomyces cerevisiae, UniProt P06169, E477Q); assay: CD titration with propionylphosphinate; format: binding; conditions: pH 6.0, 25 °C
T5 sequence (P06169 1-563 E477Q): T1 sequence (P06169 1-563) with E477Q

E91D YPDC = target: T6, E91D YPDC (Saccharomyces cerevisiae, UniProt P06169, E91D); assay: CD titration with propionylphosphinate; format: binding; conditions: for Kd: pH 6.0, 25 °C
T6 sequence (P06169 1-563 E91D): T1 sequence (P06169 1-563) with E91D

[1] = system: yeast pyruvate decarboxylase (YPDC); format: biochemical, Saccharomyces cerevisiae; conditions: 40 mM pyruvate in syringe, 10 °C, pH 6.0
[2] = system: yeast pyruvate decarboxylase (YPDC); conditions: reaction with pyruvate; cited from earlier work
[3] = system: yeast pyruvate decarboxylase (YPDC); assay: YPDC assay coupled to alcohol dehydrogenase/NADH; format: biochemical, Saccharomyces cerevisiae; conditions: pyruvate as substrate, pH 6.0, 30 °C
[4] = read-out: Kd^app (IP), 1′,4′-iminopyrimidine tautomer of PPThDP, CD band at 297 nm
[5] = read-out: Kd^app (MC), Michaelis complex, negative CD band at 330 nm

With `CCC(=O)[PH](=O)[O-].[Na+]` [PP, sodium propionylphosphinate] the “CD max (IP)” value (YPDC; IP form of PPThDP, 297 nm) was 15.8 ± 0.79 (IP) mdeg, the Kd (YPDC; [4]) was 7.82 ± 0.55 mM and the Kd (YPDC; [5]) was 9.1 ± 0.45 mM. The “CD max (IP)” value (E51D YPDC; IP form of PPThDP) was 21.6 ± 0.54 (IP) mdeg, the Kd (E51D YPDC; read-out: Kd^app (IP), 1′,4′-iminopyrimidine tautomer of PPThDP, CD band at 297 nm, pH 6.0, 25 °C) was 13.6 ± 0.35 mM and the “Kd^app” value (D28A YPDC) was “Not detected”. For the same molecule, the “CD max (IP)” value (C221E/C222A YPDC) was 4.7 ± 0.77 (IP) mdeg, the “Kd^app” value (E477Q YPDC) was “Not detected” and the “CD max (IP)” value (E91D YPDC; IP form of PPThDP, 297 nm) was 7.6 ± 0.63 (IP) mdeg. For the same molecule, the “CD max (MC)” value (E91D YPDC; Michaelis complex, 330 nm) was −2.85 ± 0.18 (MC) mdeg, the Kd (E91D YPDC; [4]) was 7.02 ± 1.34 mM and the Kd (E91D YPDC; [5]) was 8.02 ± 0.92 mM.

B1: YPDC: wild type yeast pyruvate decarboxylase (EC 4.1.1.1) isolated from Saccharomyces cerevisiae (protein, UniProt P06169 2-563, looked up)
Pyruvate decarboxylase …: SEITLGKYLFERLKQVNVNTVFGLPGDFNLSLLDKIYEVEGMRWAGNANELNAAYAADGYARIKGMSCIITTFGVGELSALNGIAGSYAEHVGVLHVVGVPSISAQAKQLLLHHTLGNGDFTVFHRMSANISETTAMITDIATAPAEIDRCIRTTYVTQRPVYLGLPANLVDLNVPAKLLQTPIDMSLKPNDAESEKEVIDTILALVKDAKNPVILADACCSRHDVKAETKKLIDLTQFPAFVTPMGKGSIDEQHPRYGGVYVGTLSKPEVKEAVESADLILSVGALLSDFNTGSFSYSYKTKNIVEFHSDHMKIRNATFPGVQMKFVLQKLLTTIADAAKGYKPVAVPARTPANAAVPASTPLKQEWMWNQLGNFLQEGDVVIAETGTSAFGINQTTFPNNTYGISQVLWGSIGFTTGATLGAAFAAEEIDPKKRVILFIGDGSLQLTVQEISTMIRWGLKPYLFVLNNDGYTIEKLIHGPKAQYNEIQGWDHLSLLPTFGAKDYETHRVATTGEWDKLTQDKSFNDNSKIRMIEIMLPVFDAPQNLVEQAKLTAATNAKQ
In the case of B1, the “rate constant of accumulation of IP tautomer (LThDP), CD signal at 313 nm” value [1] is listed as 312 s⁻¹, the “k′2 (net forward rate constant of LThDP formation)” value [2] is listed as 294 ± 20 s⁻¹ and the kcat / subunit ([3]; per subunit) is listed as 60 s⁻¹. It also gave an S0.5 [3] of 1.1 ± 0.2 mM.

From paper PMC3295232 (Journal of the American Chemical Society, 2012)
